This passage reports RP-LC retention time results from the METLIN SMRT retention time set (Domingo-Almenara et al. 2019).

The data set is described as follows: gradient 5% acetonitrile 3 min, to 50% in 2 min, to 85% in 15 min, held 3 min, 100 µL/min. The conditions noted are these: column: Zorbax Extend-C18 2.1 x 50 mm; eluents: water / acetonitrile, 0.1% formic acid. An outline of the steps: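 Each retention time is based on an adduct peak selected computationally and verified by manual inspection. Measurements used HPLC–quadrupole time-of-flight mass spectrometry in positive and negative ionization mode on mixtures of ~100 pure standards. Chromatography ran on a Zorbax Extend-C18 column (2.1 × 50 mm, 1.8 μm) at 100 μL/min with water and acetonitrile, each containing 0.1% formic acid, and dead and dwell volumes of 40 μL and 900 μL.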
Molecule `COc1ccc(OC)c(NC(=O)CN2C(=O)COc3ccc(C(=O)N4CCCC4)cc32)c1` yielded an RP-LC retention time of 682 s.

Regarding `Cc1ccc(Cn2c(=O)n(CCNC(=O)c3ccco3)c3ncccc32)cc1`, the RP-LC retention time was 760 s.

Regarding `COCCOCC(=O)N1[C@@H]2CC[C@H]1CC(NC(=O)c1cnc(C)cn1)C2` (stereo partly specified), the RP-LC retention time is 579 s. The value for `CN1CCC(NC(=O)C2CCc3sc(C(=O)N4CCOCC4)cc3C2)CC1` (stereo unspecified) was 606 s. The value for `O=C(CSc1nnc(CCc2nc3ccccc3[nH]2)o1)NCCc1ccc(Cl)cc1` was 601 s. Then `CCC(=O)N(C1CCOCC1)C1CCN(S(=O)(=O)c2ccccc2F)CC1`, with 797 s; and `CCCCNC(=O)c1c(OCC(C)C)cc(=O)n2c1CCCCC2`, with 755 s; and `Cn1cc2c3c(cccc31)CN(C(=O)c1ccc(F)cc1Cl)CC2`, with 958 s. On to `CN1CCN(c2nc(C(=O)NC3CCN(c4ccc(=O)n(C)n4)CC3)cs2)CC1`, for which the RP-LC retention time was determined as 566 s. As to `CCn1cc(C2=CCN(S(=O)(=O)c3ccc(C(C)(C)C)cc3)CC2)c2cccnc21`, the RP-LC retention time was found to be 1270 s. Molecule `COc1ccc(C2C(=O)N(C3CCCCC3)CC(=O)N2Cc2cccs2)cc1OC` (stereo unspecified) came in with an RP-LC retention time of 882 s. The value for `Cc1cc(Cl)ccc1NC(=O)N(C)CC1CCOC1` (stereo unspecified) was 756 s; that for `Cc1sc(-c2nc(C(C)C)cs2)cc1S(=O)(=O)N1CCN(c2ccccc2)CC1` was 1420 s; that for `CCN1C(=O)C2CC3(CCN(Cc4cn(C)c5ccc(OC)cc45)CC3)CN2C1=O` (stereo unspecified) was 584 s. Turning to `Cc1cc(C)cc(-n2ccn(Cc3nc(-c4ccc(C)cc4C)no3)c(=O)c2=O)c1`, the RP-LC retention time stood at 1020 s. The value for `CC1CCCN(C(=O)C2CC(=O)N(c3ccccc3)C2)C1` (stereo unspecified) was 786 s. Then `CNC(=O)C1CCCN(c2nc3ncn(CC(=O)Nc4cc(C)ccc4OC)c(=O)c3s2)C1` (stereo unspecified), with 678 s; and `Cc1sc(C)c(C(=O)NC2(c3ccc(C(=O)O)cc3)CC2)c1Cc1ccc(C(F)(F)F)cc1`, with 1070 s. Then `O=C(NCc1ccccc1Cl)c1nnc(-c2ccc(S(=O)(=O)N3CCCCC3)cc2)o1`, with 1030 s; and `COc1cc(-c2nc3ncccn3c2Nc2cc(C)ccc2C)ccc1O`, with 672 s.

The molecule `CCc1ccc2[nH]c3c(c(=O)c2c1)CN(CC(=O)NCc1ccccc1OC)CC3` returned an RP-LC retention time of 621 s. Then `Cc1ccc(-c2csc(Nc3ccc(Br)cn3)n2)cc1C`, with 1340 s.

Molecule `Cc1ccccc1OCc1ccc(-c2nc(C#N)c(NCCN(C)C)o2)o1` returned an RP-LC retention time of 707 s. Then `CCOCCCNC(=O)N1CCC(c2noc(-c3ccncc3)n2)C1` (stereo unspecified), with 643 s; and `COc1ccc(S(=O)(=O)N2CCc3c(c(CN(C(C)=O)c4ccccc4)nn3C)C2)cc1Cl`, with 846 s; and `COc1ccc(-c2noc(Cn3ccnc3C)n2)cc1OC`, with 589 s. The value for `COc1ccc(-c2ncc3c(n2)CCN(C(=O)c2ccc(Br)cc2)C3)cc1` was 1000 s; that for `O=C(c1ccc2ccccc2n1)N1CCC(Oc2ccccc2)C1` (stereo unspecified) was 937 s; that for `O=C(C1CCCN(c2ncccc2-c2noc(C3CCC3)n2)C1)N1CCCCC1` (stereo unspecified) was 928 s. `CC(O)Cn1cnc2c1c(=O)n(C)c(=O)n2C` (stereo unspecified): the RP-LC retention time amounted to 1100 s. The value for `COc1cc(Nc2nc(-c3nnn(-c4ccc(F)cc4)c3C)ns2)cc(OC)c1` was 990 s; that for `CC(C)NC(=O)c1ccccc1OCC1CCCN(C2CCCC2)C1` (stereo unspecified) was 635 s; that for `COC(=O)c1ccc2c(=O)n(-c3ccc(OC)cc3)c(N3CCSC3)nc2c1` was 1050 s. Then `CC(NC(=O)C(=O)c1c[nH]c2ccccc12)c1ccccc1` (stereo unspecified), with 924 s; and `O=C(NCCc1c[nH]c2ccc(Cl)cc12)c1cc2n(n1)CCCN(Cc1ccc(F)cc1)C2=O`, with 927 s; and `Cc1ccc(S(=O)(=O)N2CCC(C)(C(=O)NCc3ccccc3)CC2)cc1`, with 932 s. Then `O=C(C1CCCN(c2ncnc3c2nc2n3CCCCC2)C1)N1CCN(c2ccccc2)CC1` (stereo unspecified), with 803 s; and `CCOC(=O)c1[nH]c(C)c(C(=O)NCCN(C)C)c1C`, with 571 s. In the case of `COc1ccccc1N1CCN(c2cc(SCC(=O)Nc3cccc(C)c3C)ncn2)CC1`, the RP-LC retention time is 1030 s. Then `COc1ccc(NC(=O)C2CCN(c3cncnc3N(C)C)CC2)cc1OC`, with 592 s; and `CC(C(=O)NCc1ccco1)C1CCN(C(=O)c2cc3ccccc3[nH]2)CC1` (stereo unspecified), with 767 s; and `CCS(=O)(=O)N1CC(=O)N(c2ccccc2C)C(C)(C(=O)NCc2ccccc2)C1` (stereo unspecified), with 802 s. Then `C=CCNC(=O)CN1C(=O)C2CCCCN2c2ccc(C(=O)N3CCCC3)cc21` (stereo unspecified), with 838 s. In the case of `CS(=O)(=O)N1CCC(CNC(=O)c2cc(-c3ccccc3)on2)CC1`, the RP-LC retention time was found to be 750 s.

In turn, `Cn1nc(-c2nc(C3CC3)no2)c2c1CCN(C(=O)Nc1ccc(Cl)cc1)C2` came in with an RP-LC retention time of 882 s.

`Cc1cc(C2CCCN2C(=O)c2cnn3c(C(F)(F)F)cc(-c4ccco4)nc23)on1` (stereo unspecified) returned an RP-LC retention time of 855 s. `COCCNC(=O)c1nc(-c2ccnc(N3CCC(C)CC3)c2)no1` displayed an RP-LC retention time of 670 s. The value for `CSCc1csc(NC(=O)COc2ccc(Cl)cc2)n1` was 883 s. Then `COc1cccc(NC(=O)Nc2nccn(-c3ccc(F)cc3)c2=O)c1`, with 898 s; and `Cc1ccc(CNS(=O)(=O)c2ccc(-c3c(C)noc3C)cc2)o1`, with 893 s.

As to `NC(=O)c1oc2ccccc2c1NC(=O)C1=COCCO1`, the RP-LC retention time came to 672 s. `Cn1cccc1C(=O)N1CCC(COc2ccc(C(=O)N3CCCCC3)cc2)CC1` gave an RP-LC retention time of 897 s. Turning to `Cc1cc(-c2nnc(C3CCC3)o2)c(C)n1CC(=O)NCc1cccc(Cl)c1`, the RP-LC retention time turned out to be 897 s. The value for `CCc1ccccc1NC(=O)N1CCC(N(CCC(C)C)C2CCOCC2)CC1` was 665 s; that for `Cc1[nH]c(C(=O)N2CCC(CC(=O)NCC3CCCO3)CC2)c(C)c1C(=O)OC(C)C` (stereo unspecified) was 682 s; that for `CC(C)c1ccc(S(=O)(=O)c2ccc(=O)n(CC(=O)N3CCN(c4ccc(F)cc4)CC3)n2)cc1` was 1000 s. Then `COCCOC1CCOC2(CCN(C(=O)c3ccsc3)CC2)C1` (stereo unspecified), with 670 s. Then `O=C(c1cn2ccnc(-c3ccccc3)c2n1)N1CCN(C2CCCCC2)CC1`, with 637 s. On to `CCOc1ccc(CN2C[C@@H]3C(=O)N(CCc4ccccc4)C(=O)[C@@H]3C2)cc1OC`, for which the RP-LC retention time stood at 634 s.

Molecule `Cn1c(=O)oc2cc(-c3noc(CCc4ccccc4)n3)ccc21` yielded an RP-LC retention time of 1030 s. `O=C(NC1CCCCCC1)C1CCN(c2cc(N3CCSCC3)ncn2)CC1` gave an RP-LC retention time of 710 s. `CCc1nnc(-c2cc(S(=O)(=O)NCCCc3ccccc3)cn2C)o1` returned an RP-LC retention time of 864 s. As for `CC(C)NC(=O)C1CCN(c2cnc(N3CCSCC3)nc2)CC1`, the RP-LC retention time turned out to be 629 s.

The molecule `O=C(Cc1ccc(F)cc1)N1CCN(C(=O)c2cc(-c3cccnc3)n[nH]2)CC1` yielded an RP-LC retention time of 606 s. For the molecule `CCn1c(SC)nnc1-c1nn(C)c2c1CN(C(=O)c1ccc(F)cc1)CC2`, the RP-LC retention time amounted to 763 s. The molecule `CC(C)CCNC(=O)CN1C(=O)CCCc2cc(S(=O)(=O)N3CCC(C)CC3)ccc21` returned an RP-LC retention time of 938 s.

`O=C(NC1CCCC1)C1CCCN(c2nnc3ccc(Cl)cn23)C1` (stereo unspecified): the RP-LC retention time was 648 s. The value for `O=C(Nc1ccc(Cl)cc1)C1CC(=O)N(CCc2c[nH]c3ccc(F)cc23)C1` (stereo unspecified) was 857 s; that for `CC(C)N1CCN(Cc2nc(-c3ccc(N4CCOCC4)nc3)no2)CC1` was 574 s. Turning to `CC1CCc2[nH]nc(C(=O)NCC3CCCO3)c2C1` (stereo unspecified), the RP-LC retention time was determined as 702 s. As to `CCn1c(=O)c2ccn(CC(=O)N3CCCc4ccccc43)c2n(CC)c1=O`, the RP-LC retention time is 776 s. Then `COc1cccc(NC(=O)C2CCN(c3cc(N4CCCC4)ncn3)CC2)c1`, with 652 s; and `Cc1ncc2c(n1)CCCN(CC(=O)NC1CC1)C2=O`, with 567 s.

In the case of `CCOc1ccccc1N1CCN(S(=O)(=O)c2nn(C)cc2C(=O)NCCCOC)CC1`, the RP-LC retention time came out at 847 s.

For `O=C(CCCc1c[nH]c2ccccc12)NC1CCN(c2ccc(=O)[nH]n2)C1` (stereo unspecified), the RP-LC retention time worked out at 640 s. In turn, `COc1ccc(C(=O)N2CCC(COc3ccc(C(=O)NC(C)C)cc3)CC2)c(C)c1` returned an RP-LC retention time of 851 s. Then `Cc1ccc(F)cc1NS(=O)(=O)c1cn(CC(C)C)c2ncccc12`, with 993 s; and `CC(C)CNC(=O)C1(CCO)CCN(Cc2ccccc2)C1` (stereo unspecified), with 589 s; and `Cc1nc(-c2cccc(F)c2)sc1C(=O)NC(C)C`, with 936 s. The value for `CC(C)Cn1c(=O)c2sccc2n2c(CCC(=O)NCc3cc(F)ccc3F)nnc12` was 622 s; that for `Cc1cc(NC(C)C)n2nc(-c3ccc(Cl)cc3)c(C)c2n1` was 761 s.
